From patent US20250313572A1, “MACROCYCLIC MCL-1 INHIBITORS AND METHODS OF USE” (AbbVie Inc., priority 2017, published 2025) come the findings set out here.

One test concerns the target GST-MCL-1 (Homo sapiens, UniProt Q07820). In words: TR-FRET MCL-1 binding assay (competition with probe F-Bak). The gist of the method:
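Displacement of F-Bak from GST-MCL-1 is detected by time-resolved FRET with a Tb-labelled anti-GST antibody, with excitation 340/35 nm and emission 520/525 and 495/510 nm, after 2 hours at room temperature. Compounds were titrated in 11 three-fold steps starting at 25 μM final, in buffer alone or in 10% HS.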

Test [1] relates to NCI-H929 human multiple myeloma tumor cell line. In words: NCI-H929 cell viability assay (CellTiter-Glo, 24 hours). It is filed as cell-based. The note with it: Homo sapiens, NCI-H929, 24 h, read-out: H929 Viability IC50 (μM, 10% FBS), 10% FBS, 24 hours of compound treatment.
Test [2] concerns AMO-1 human multiple myeloma tumor cell line. In words: AMO-1 cell viability assay (CellTiter-Glo, 24 hours). The note with it: Homo sapiens, AMO1, 24 h, read-out: AMO-1 Viability IC50 (μM, 10% FBS), 10% FBS, 24 hours of compound treatment. The class given is cell-based.
[3] abbreviates: MCL-1 Binding Ki (nM, 10% HS), in the presence of 10% HS (human serum).
Setting [4] is: without HS, read-out: MCL-1 Binding Ki.

Where two headings read alike, the source gives them in different places.

GST-MCL-1, sequence (Q07820 whole entry): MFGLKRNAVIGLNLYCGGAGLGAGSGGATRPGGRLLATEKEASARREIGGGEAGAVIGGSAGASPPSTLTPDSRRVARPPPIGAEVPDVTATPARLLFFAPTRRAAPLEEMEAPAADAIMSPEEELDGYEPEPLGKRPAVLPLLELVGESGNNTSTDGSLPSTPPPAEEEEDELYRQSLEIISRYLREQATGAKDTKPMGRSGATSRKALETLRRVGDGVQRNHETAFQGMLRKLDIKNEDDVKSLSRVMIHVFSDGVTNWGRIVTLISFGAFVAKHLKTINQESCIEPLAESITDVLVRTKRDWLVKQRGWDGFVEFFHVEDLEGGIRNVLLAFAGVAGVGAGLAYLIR

For `COCCOCCOCCOCC1(c2nccc(COc3ccc4cc3C[C@H](C(=O)O)Oc3ncnc5sc(-c6ccc(F)cc6)c(c35)-c3c(C)c(Cl)c(c(Cl)c3C)O[C@H](CN3CCN(C)CC3)CO4)n2)CCC1` [Example 45, (7R,16R)-19,23-dichloro-1-(4-fluorophenyl)-20,22-dimethyl-16-[(4-methylpiperazin-1-yl)methyl]-10-({2-[1-(2,5,8,11-tetraoxadodecan-1-yl)cyclobutyl]pyrimidin-4-yl}methoxy)-7,8,15,16-tetrahydro-18,21-etheno-13,9-(metheno)-6,14,17-trioxa-2-thia-3,5-diazacyclononadeca[1,2,3-cd]indene-7-carboxylic Acid], the Ki worked out at 0.343 nM on GST-MCL-1 (setting [3]) and 0.094 nM on GST-MCL-1 (setting [4]). Besides, the values for the IC50 in test [1] and in test [2] were 0.000598 µM and 0.000461 µM, respectively.

As for `COCCOCCOCCOc1ccc(-c2nccc(COc3ccc4cc3C[C@H](C(=O)O)Oc3ncnc5sc(-c6ccc(F)cc6)c(c35)-c3c(C)c(Cl)c(c(Cl)c3C)O[C@H](CN3CCN(C)CC3)CO4)n2)cn1` [Example 46, (7R,16R)-19,23-dichloro-1-(4-fluorophenyl)-10-{[2-(6-{2-[2-(2-methoxyethoxy)ethoxy]ethoxy}pyridin-3-yl)pyrimidin-4-yl]methoxy}-20,22-dimethyl-16-[(4-methylpiperazin-1-yl)methyl]-7,8,15,16-tetrahydro-18,21-etheno-13,9-(metheno)-6,14,17-trioxa-2-thia-3,5-diazacyclononadeca[1,2,3-cd]indene-7-carboxylic Acid], the Ki was 1.08 nM on GST-MCL-1 (setting [3]) and 1.02 nM at GST-MCL-1 (setting [4]). Moreover, the values for the IC50 in test [1] and in test [2] were 0.000388 µM and 0.00027 µM, respectively.

`COCCOCCOCCOCCOCCOCCOCCOCCOCCOCCOCCNC(=O)c1ccc(-c2nccc(COc3ccc4cc3C[C@H](C(=O)O)Oc3ncnc5sc(-c6ccc(F)cc6)c(c35)-c3c(C)c(Cl)c(c(Cl)c3C)O[C@H](CN3CCN(C)CC3)CO4)n2)cc1` [Example 47, (7R,16R)-19,23-dichloro-1-(4-fluorophenyl)-20,22-dimethyl-16-[(4-methylpiperazin-1-yl)methyl]-10-[(2-{4-[(2,5,8,11,14,17,20,23,26,29,32-undecaoxatetratriacontan-34-yl)carbamoyl]phenyl}pyrimidin-4-yl)methoxy]-7,8,15,6-tetrahydro-18,21-etheno-13,9-(metheno)-6,14,17-trioxa-2-thia-3,5-diazacyclononadeca[1,2,3-cd]indene-7-carboxylic Acid]: the inhibition constant Ki at GST-MCL-1 (setting [3]) is 3.12 nM; on GST-MCL-1 (setting [4]), 0.018 nM. Moreover, the IC50 in test [1] was 0.0205 µM; in test [2], 0.0182 µM.

Turning to `Cc1c(Cl)c2c(Cl)c(C)c1-c1c(-c3ccc(F)cc3)sc3ncnc(c13)O[C@@H](C(=O)O)Cc1cc(ccc1OCc1ccnc(N3CC4(C3)CC(F)(F)C4)n1)OC[C@@H](CN1CCN(C)CC1)O2` [Example 48, (7R,16R)-19,23-dichloro-10-{[2-(6,6-difluoro-2-azaspiro[3.3]heptan-2-yl)pyrimidin-4-yl]methoxy}-1-(4-fluorophenyl)-20,22-dimethyl-16-[(4-methylpiperazin-1-yl)methyl]-7,8,15,16-tetrahydro-18,21-etheno-9,13-(metheno)-6,14,17-trioxa-2-thia-3,5-diazacyclononadeca[1,2,3-cd]indene-7-carboxylic Acid], the Ki worked out at 5.32 nM on GST-MCL-1 (setting [3]) and 0.644 nM on GST-MCL-1 (setting [4]). Moreover, the IC50 in test [1] stood at 0.00798 µM; in test [2], 0.00275 µM.

Turning to `Cc1c(Cl)c2c(Cl)c(C)c1-c1c(-c3ccc(F)cc3)sc3ncnc(c13)O[C@@H](C(=O)O)Cc1cc(ccc1OCc1ccnc(N3CCC(CC(=O)O)CC3)n1)OC[C@@H](CN1CCN(C)CC1)O2` [Example 49, (7R,16R)-10-({2-[4-(carboxymethyl)piperidin-1-yl]pyrimidin-4-yl}methoxy)-19,23-dichloro-1-(4-fluorophenyl)-20,22-dimethyl-16-[(4-methylpiperazin-1-yl)methyl]-7,8,15,16-tetrahydro-18,21-etheno-13,9-(metheno)-6,14,17-trioxa-2-thia-3,5-diazacyclononadeca[1,2,3-cd]indene-7-carboxylic Acid], the figures for the Ki at GST-MCL-1 (setting [3]) and on GST-MCL-1 (setting [4]) were 0.775 nM and 0.039 nM, respectively. The IC50 came out at 0.0431 µM in test [1] and 0.0222 µM in test [2].

Consider `COCCOCCOCCOCCOCCOCCOCCOCCOCCOCCOCCC(=O)NCc1ccc(-c2nccc(COc3ccc4cc3C[C@H](C(=O)O)Oc3ncnc5sc(-c6ccc(F)cc6)c(c35)-c3c(C)c(Cl)c(c(Cl)c3C)O[C@H](CN3CCN(C)CC3)CO4)n2)cc1` [Example 50, (7R,16R)-19,23-dichloro-1-(4-fluorophenyl)-20,22-dimethyl-16-[(4-methylpiperazin-1-yl)methyl]-10-({2-[4-(35-oxo-2,5,8,11,14,17,20,23,26,29,32-undecaoxa-36-azaheptatriacontan-37-yl)phenyl]pyrimidin-4-yl}methoxy)-7,8,15,16-tetrahydro-18,21-etheno-13,9-(metheno)-6,14,17-trioxa-2-thia-3,5-diazacyclononadeca[1,2,3-cd]indene-7-carboxylic Acid], for which the results for the Ki at GST-MCL-1 (setting [3]) and on GST-MCL-1 (setting [4]) were 0.513 nM and 0.199 nM, respectively. Further, the concentration for half-maximal inhibition (IC50) was 0.103 µM in test [1] and 0.0676 µM in test [2].

Regarding `Cc1c(Cl)c2c(Cl)c(C)c1-c1c(-c3ccc(F)cc3)sc3ncnc(c13)O[C@@H](C(=O)O)Cc1cc(ccc1OCc1ccnc(-c3cccc(CP(C)(C)=O)c3)n1)OC[C@@H](CN1CCN(C)CC1)O2` [Example 51, (7R,16R)-19,23-dichloro-10-[(2-{3-[(dimethylphosphoryl)methyl]phenyl}pyrimidin-4-yl)methoxy]-1-(4-fluorophenyl)-20,22-dimethyl-16-[(4-methylpiperazin-1-yl)methyl]-7,8,15,16-tetrahydro-18,21-etheno-13,9-(metheno)-6,14,17-trioxa-2-thia-3,5-diazacyclononadeca[1,2,3-cd]indene-7-carboxylic Acid], the Ki on GST-MCL-1 (setting [3]) was determined as 0.076 nM; on GST-MCL-1 (setting [4]), 0.011 nM. In addition, the values for the IC50 in test [1] and in test [2] were 0.00671 µM and 0.0034 µM, respectively.

For `COCCOCCOCCC1CCN(c2nccc(COc3ccc4cc3C[C@H](C(=O)O)Oc3ncnc5sc(-c6ccc(F)cc6)c(c35)-c3c(C)c(Cl)c(c(Cl)c3C)O[C@H](CN3CCN(C)CC3)CO4)n2)CC1` [Example 52, (7R,16R)-19,23-dichloro-1-(4-fluorophenyl)-10-{[2-(4-{2-[2-(2-methoxyethoxy)ethoxy]ethyl}piperidin-1-yl)pyrimidin-4-yl]methoxy}-20,22-dimethyl-16-[(4-methylpiperazin-1-yl)methyl]-7,8,15,6-tetrahydro-18,21-etheno-9,13-(metheno)-6,14,17-trioxa-2-thia-3,5-diazacyclononadeca[1,2,3-cd]indene-7-carboxylic Acid], the Ki on GST-MCL-1 (setting [3]) stood at 3.31 nM; on GST-MCL-1 (setting [4]) it was 0.348 nM. Besides, the IC50 in test [1] is 0.00269 µM; in test [2], 0.000648 µM.
